The results in this text go back to patent US9296741B2, “Bromodomain inhibitors” (priority 2012, dated 2016).

A word on the Ki: it is a dissociation constant, usually derived from enzyme kinetics or from competition with a known ligand.

A short description of series [1]: Mouse liver microsome stability assay. In kind it is in vitro ADME. Conditions: male, CD1, mouse, microsomes, pH 7.4. A general note: Liver microsomes are vesicles of endoplasmic reticulum, rich in cytochrome P450 enzymes.
The target of series [2] is human BRD4 first bromodomain (BDI_K57-E168) (Homo sapiens (Human), UniProt O60885). Nature of the series: TR-FRET bromodomain binding assay, BRD4 first bromodomain. (In TR-FRET formats the signal depends on donor and acceptor labels being close together.)
Series [3] in a line: Human liver microsome stability assay. In kind it is in vitro ADME. Conditions: both sexes, human, microsomes, pH 7.4.
Series [4] has as its target human BRD4 second bromodomain (BDII_E352-M457) (Homo sapiens (Human), UniProt O60885). Nature of the series: TR-FRET bromodomain binding assay, BRD4 second bromodomain.
Series [5] deals with breast cancer cell line MX-1. Description: MX-1 cell line proliferation assay. Conditions: Homo sapiens, MX1, 72 h; MX-1 cells, 3-day proliferation, Cell Titer Glo; read-out: Cellular proliferation: EC50. The series is classed as cell-based, human. (ATP-based viability assays read luminescence as a measure of living cells.)
The nature of series [6]: Rat liver microsome stability assay. In kind it is in vitro ADME. Conditions: rat liver microsomes (male Sprague-Dawley), 0.5 μM test compound, 0.25 mg/mL microsomal protein, pH 7.4, 37° C.; read-out: Stability in rat liver microsomes (t1/2 in minutes).

With `Cn1cc(-c2cc(-c3ccc(N)nc3)ccc2OCC2CC2)c2cc[nH]c2c1=O` [Example 326, 4-[5-(6-aminopyridin-3-yl)-2-(cyclopropylmethoxy)phenyl]-6-methyl-1,6-dihydro-7H-pyrrolo[2,3-c]pyridin-7-one], the half-life at 0.5 μM in series [1] worked out at 27 min; in series [3], 112 min; in series [6], 5 min. For the same compound, the Ki stood at 145 nM in series [2] and 272 nM in series [4]. Further, the EC50 in series [5] amounted to 286 nM.

For `CCS(=O)(=O)N(CCC(F)(F)F)c1ccc(Oc2ccc(F)cc2F)c(-c2cn(C)c(=O)c3[nH]ccc23)c1` [Example 346, N-[4-(2,4-difluorophenoxy)-3-(6-methyl-7-oxo-6,7-dihydro-1H-pyrrolo[2,3-c]pyridin-4-yl)phenyl]-N-(3,3,3-trifluoropropyl)ethanesulfonamide], the half-life at 0.5 μM in series [1] was 2 min; in series [3], 4 min; in series [6], 5 min. Moreover, the Ki in series [2] worked out at 96.2 nM; in series [4], 16 nM. In addition, in series [5], the EC50 turned out to be 213 nM.

As for `CCS(=O)(=O)Nc1ccc(OCc2ccnn2C)c(-c2cn(C)c(=O)c3[nH]ccc23)c1` [Example 142, N-{3-(6-methyl-7-oxo-6,7-dihydro-1H-pyrrolo[2,3-c]pyridin-4-yl)-4-[(1-methyl-1H-pyrazol-5-yl)methoxy]phenyl}ethanesulfonamide], the half-life at 0.5 μM in series [1] was determined as 32 min; in series [3], 112 min; in series [6], 35 min. Moreover, the Ki in series [2] was 6.5 nM; in series [4], 79.4 nM. For the same compound, the EC50 in series [5] came out at 138 nM.

`Cn1cc(-c2cc(C(N)=O)ccc2Oc2ccccc2)c2cc[nH]c2c1=O` [Example 19, 3-(6-methyl-7-oxo-6,7-dihydro-1H-pyrrolo[2,3-c]pyridin-4-yl)-4-phenoxybenzamide]: the half-life at 0.5 μM in series [1] amounted to 33 min; in series [3] it was 92 min; in series [6], 13 min. The values for the Ki in series [2] and in series [4] were 7.4 nM and 4.2 nM, respectively. Moreover, the EC50 in series [5] turned out to be 123 nM.

Consider `Cn1cc(-c2cc(S(C)(=O)=O)ccc2OCC2(F)COC2)c2cc[nH]c2c1=O` [Example 206, 4-{2-[(3-fluorooxetan-3-yl)methoxy]-5-(methylsulfonyl)phenyl}-6-methyl-1,6-dihydro-7H-pyrrolo[2,3-c]pyridin-7-one], for which the half-life at 0.5 μM was 95 min in series [1], more than 120 min in series [3] and 118 min in series [6]. Also, the Ki in series [2] was found to be 11.6 nM; in series [4], 22.8 nM. Moreover, in series [5], the EC50 was 77.7 nM.

As for `Cn1cc(-c2cc(NS(C)(=O)=O)ccc2OC2CCOC2)c2cc[nH]c2c1=O` (stereo not drawn) [Example 31, N-[3-(6-methyl-7-oxo-6,7-dihydro-1H-pyrrolo[2,3-c]pyridin-4-yl)-4-(tetrahydrofuran-3-yloxy)phenyl]methanesulfonamide], the half-life at 0.5 μM was 19 min in series [1], 56 min in series [3] and more than 120 min in series [6]. Further, the inhibition constant Ki was 1.8 nM in series [2] and 13.4 nM in series [4]. Further, in series [5], the EC50 was found to be 39.8 nM.

For the compound `Cn1cc(-c2cc(S(C)(=O)=O)ccc2Oc2ccc(F)cc2F)c2cc(CNc3ccccc3)[nH]c2c1=O` [Example 282, 4-[2-(2,4-difluorophenoxy)-5-(methylsulfonyl)phenyl]-6-methyl-2-[(phenylamino)methyl]-1,6-dihydro-7H-pyrrolo[2,3-c]pyridin-7-one], the half-life at 0.5 μM was 7 min in series [1], 9 min in series [3] and 21 min in series [6]. The inhibition constant (Ki) in series [2] is 17.3 nM; in series [4], 72.3 nM. Besides, the EC50 in series [5] amounted to 204 nM.

On to `Cn1cc(-c2cc(S(=O)(=O)c3ccccc3)ccc2OCC2CC2)c2cc[nH]c2c1=O` [Example 285, 4-[2-(cyclopropylmethoxy)-5-(phenylsulfonyl)phenyl]-6-methyl-1,6-dihydro-7H-pyrrolo[2,3-c]pyridin-7-one], for which the figures for the half-life at 0.5 μM in series [1], in series [3] and in series [6] were 12 min, 19 min and 10 min, respectively. Also, the Ki in series [2] is 10.8 nM; in series [4] it was 7.5 nM. Moreover, the EC50 in series [5] stood at 111 nM.

In the case of `Cn1cc(-c2cc(S(C)(=O)=O)ccc2OCC2CCCCC2)c2cc[nH]c2c1=O` [Example 224, 4-[2-(cyclohexylmethoxy)-5-(methylsulfonyl)phenyl]-6-methyl-1,6-dihydro-7H-pyrrolo[2,3-c]pyridin-7-one], the half-life at 0.5 μM in series [1] was 5 min; in series [3], 6 min; in series [6] it was 8 min. For the same compound, the Ki was found to be 6.9 nM in series [2] and 7 nM in series [4]. In addition, the EC50 in series [5] was determined as 7.6 nM.

`CNS(=O)(=O)Nc1ccc(Oc2c(F)cc(F)cc2F)c(-c2cn(C)c(=O)c3[nH]ccc23)c1` [Example 98, N-methyl-N′-[3-(6-methyl-7-oxo-6,7-dihydro-1H-pyrrolo[2,3-c]pyridin-4-yl)-4-(2,4,6-trifluorophenoxy)phenyl]sulfuric diamide]: the half-life at 0.5 μM in series [1] amounted to 10 min; in series [3], 26 min; in series [6] it was 33 min. Further, the Ki was 6.5 nM in series [2] and 2.7 nM in series [4]. In addition, in series [5], the EC50 stood at 52.9 nM.

Take `CC(COC(C)(C)C)Oc1ccc(S(C)(=O)=O)cc1-c1cn(C)c(=O)c2[nH]ccc12` (stereo not drawn) [Example 229, 4-{2-[(1-tert-butoxypropan-2-yl)oxy]-5-(methylsulfonyl)phenyl}-6-methyl-1,6-dihydro-7H-pyrrolo[2,3-c]pyridin-7-one]: the half-life at 0.5 μM was found to be 9 min in series [1], 25 min in series [3] and 33 min in series [6]. Moreover, the values for the Ki in series [2] and in series [4] were 34.3 nM and 61.3 nM, respectively. In addition, in series [5], the EC50 worked out at 288 nM.

As to `Cn1cc(-c2cc(S(=O)(=O)N3CCc4ccccc43)ccc2Oc2ccc(F)cc2F)c2cc[nH]c2c1=O` [Example 319, 4-[2-(2,4-difluorophenoxy)-5-(2,3-dihydro-1H-indol-1-ylsulfonyl)phenyl]-6-methyl-1,6-dihydro-7H-pyrrolo[2,3-c]pyridin-7-one], the half-life at 0.5 μM in series [1], in series [3] and in series [6] was 2 min in each case. In addition, the Ki in series [2] worked out at 372 nM; in series [4], 9.9 nM. Further, in series [5], the EC50 was 435 nM.

For `Cn1cc(-c2cc(C(=O)NCC(F)F)ccc2Oc2ccccc2)c2cc[nH]c2c1=O` [Example 16, N-(2,2-difluoroethyl)-3-(6-methyl-7-oxo-6,7-dihydro-1H-pyrrolo[2,3-c]pyridin-4-yl)-4-phenoxybenzamide], the half-life at 0.5 μM in series [1] is 22 min; in series [3] it was more than 120 min; in series [6], 4 min. Further, the Ki stood at 4.3 nM in series [2] and 5.3 nM in series [4]. In addition, in series [5], the EC50 came to 94.6 nM.

For the compound `CCNC(=O)c1ccc(Oc2ccccc2)c(-c2cn(C)c(=O)c3[nH]ccc23)c1` [Example 13, N-ethyl-3-(6-methyl-7-oxo-6,7-dihydro-1H-pyrrolo[2,3-c]pyridin-4-yl)-4-phenoxybenzamide], the figures for the half-life at 0.5 μM in series [1], in series [3] and in series [6] were 22 min, 66 min and 2 min, respectively. For the same compound, the Ki in series [2] is 3.7 nM; in series [4], 3.4 nM. Moreover, the EC50 in series [5] worked out at 128 nM.

As for `Cn1cc(-c2cc(S(C)(=O)=O)ccc2OCC2C[C@@H]3CC[C@H]2C3)c2cc[nH]c2c1=O` (stereo partly drawn) [Example 230, 4-{2-[(1S,4R)-bicyclo[2.2.1]hept-2-ylmethoxy]-5-(methylsulfonyl)phenyl}-6-methyl-1,6-dihydro-7H-pyrrolo[2,3-c]pyridin-7-one], the half-life at 0.5 μM in series [1] was determined as 7 min; in series [3], 6 min; in series [6], 8 min. For the same compound, the Ki is 2.6 nM in series [2] and 1.5 nM in series [4]. In series [5], the EC50 was found to be 23.6 nM.

Take `Cn1cc(-c2cc(CS(=O)(=O)c3ccccc3)ccc2Oc2ccc(F)cc2F)c2cc[nH]c2c1=O` [Example 306, 4-{2-(2,4-difluorophenoxy)-5-[(phenylsulfonyl)methyl]phenyl}-6-methyl-1,6-dihydro-7H-pyrrolo[2,3-c]pyridin-7-one]: the values for the half-life at 0.5 μM in series [1], in series [3] and in series [6] were 3 min, 11 min and 9 min, respectively. Further, the values for the Ki in series [2] and in series [4] were 82.2 nM and 63.9 nM, respectively. Besides, in series [5], the EC50 came out at 51.6 nM.

For the compound `Cn1cc(-c2cc(NS(C)(=O)=O)ccc2Oc2ccccc2)c2cc(C(N)=O)[nH]c2c1=O` [Example 73, 6-methyl-4-{5-[(methylsulfonyl)amino]-2-phenoxyphenyl}-7-oxo-6,7-dihydro-1H-pyrrolo[2,3-c]pyridine-2-carboxamide], the half-life at 0.5 μM in series [1] was found to be 31 min; in series [3], 36 min; in series [6], 2 min. In addition, the results for the Ki in series [2] and in series [4] were 0.98 nM and 0.5 nM, respectively. For the same compound, the EC50 in series [5] amounted to 20.7 nM.

Consider `Cn1cc(-c2cc(S(C)(=O)=O)ccc2Oc2ccc(F)cc2F)c2cc(C(N)=O)[nH]c2c1=O` [Example 252, 4-[2-(2,4-difluorophenoxy)-5-(methylsulfonyl)phenyl]-6-methyl-7-oxo-6,7-dihydro-1H-pyrrolo[2,3-c]pyridine-2-carboxamide], for which the results for the half-life at 0.5 μM in series [1], in series [3] and in series [6] were more than 120 min, 68 min and more than 120 min, respectively. The Ki in series [2] amounted to 10.1 nM; in series [4], 1.7 nM. For the same compound, in series [5], the EC50 was 246 nM.
